In ChEMBL document CHEMBL4177699, “Organoselenium compounds from purines: Synthesis of 6-arylselanylpurines with antioxidant and anticholinesterase activities and memory improvement effect” (Bioorg Med Chem, 2017):
The source made the active and inactive calls. The calls are words filed in the database; no cut-off is given here.

What was measured:
[1] = Antioxidant activity assessed as ABTS radical scavenging activity at 100 uM after 30 mins (reference value: 100%); format: functional
[2] = molecular target: T1, Acetylcholinesterase (Mus musculus) (UniProt P21836); experiment: (§1) Inhibition of AChE in Swiss mouse cerebral cortex homogenate using acetylthiocholine as substrate assessed as acetylthiocholine level per mg protein at 200 uM preincubated for 2 mins followed by substrate addition by DTNB based assay (reference value: 9.6 +/- 0.5 umol/hr)
T1 sequence (whole entry): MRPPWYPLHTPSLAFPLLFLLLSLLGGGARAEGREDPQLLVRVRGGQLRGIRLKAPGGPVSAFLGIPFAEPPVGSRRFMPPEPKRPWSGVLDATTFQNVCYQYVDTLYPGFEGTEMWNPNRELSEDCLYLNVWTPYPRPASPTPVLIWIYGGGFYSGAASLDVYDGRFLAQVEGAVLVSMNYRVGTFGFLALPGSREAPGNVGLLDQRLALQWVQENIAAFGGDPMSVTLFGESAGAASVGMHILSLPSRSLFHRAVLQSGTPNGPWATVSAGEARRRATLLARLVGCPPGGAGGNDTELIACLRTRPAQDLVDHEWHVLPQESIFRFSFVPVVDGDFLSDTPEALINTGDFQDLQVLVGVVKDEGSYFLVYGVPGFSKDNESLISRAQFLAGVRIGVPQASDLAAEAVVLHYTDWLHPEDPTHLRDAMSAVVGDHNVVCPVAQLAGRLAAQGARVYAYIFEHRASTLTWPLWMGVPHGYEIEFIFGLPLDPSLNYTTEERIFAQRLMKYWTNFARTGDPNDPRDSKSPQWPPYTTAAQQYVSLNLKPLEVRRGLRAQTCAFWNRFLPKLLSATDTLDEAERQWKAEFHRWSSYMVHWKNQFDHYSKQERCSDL

[3] = molecular target: T1, Acetylcholinesterase (Mus musculus); experiment: Inhibition of AChE in Swiss mouse cerebral cortex homogenate using acetylthiocholine as substrate assessed as acetylthiocholine level per mg protein at 1 uM preincubated for 2 mins followed by substrate addition by DTNB based assay (reference value: 9.6 +/- 0.5 umol/hr)
[4] = Antioxidant activity assessed as ABTS radical scavenging activity at 1 uM after 30 mins (reference value: 100%); format: functional
[5] = molecular target: T1, Acetylcholinesterase (Mus musculus); experiment: Inhibition of AChE in Swiss mouse cerebral cortex homogenate using acetylthiocholine as substrate assessed as acetylthiocholine level per mg protein at 10 uM preincubated for 2 mins followed by substrate addition by DTNB based assay (reference value: 9.6 +/- 0.5 umol/hr)
[6] = Antioxidant activity assessed as ABTS radical scavenging activity at 10 uM after 30 mins (reference value: 100%); format: functional
[7] = Antioxidant activity assessed as DPPH radical scavenging activity at 10 uM after 30 mins (reference value: 100%); format: functional
[8] = Antioxidant activity assessed as ABTS radical scavenging activity at 200 uM after 30 mins (reference value: 100%); format: functional
[9] = Antioxidant activity assessed as DPPH radical scavenging activity at 200 uM after 30 mins (reference value: 100%); format: functional
[10] = Antioxidant activity assessed as DPPH radical scavenging activity at 100 uM after 30 mins (reference value: 100%); format: functional
[11] = molecular target: T1, Acetylcholinesterase (Mus musculus); experiment: as §1, with “100” for “200”, “umol/hr) (reference value: 9.6 +/- 0.5 umol/hr)” for “umol/hr)”
[12] = Antioxidant activity assessed as DPPH radical scavenging activity at 1 uM after 30 mins (reference value: 100%); format: functional
Mus musculus [13] = experiment: Cognitive enhancement activity in Swiss mouse assessed as increase in step-through latency at 10 mg/kg, ig treated immediately post-training measured 24 hrs after training trial by passive avoidance test relative to control; format: functional
Mus musculus [14] = experiment: Toxicity in Swiss mouse assessed as impairment in locomotory activity at 10 mg/kg, ig treated immediately post-training measured up to 4 mins by open-field test; format: organism-based; conditions: in vivo, po
Mus musculus [15] = experiment: Toxicity in Swiss mouse assessed as impairment in exploratory behavior at 10 mg/kg, ig treated 30 mins before test session measured up to 4 mins by open-field test; format: organism-based; conditions: in vivo, po
Mus musculus [16] = experiment: Toxicity in Swiss mouse assessed as impairment in exploratory behavior at 10 mg/kg, ig treated immediately post-training measured up to 4 mins by open-field test; format: organism-based; conditions: in vivo, po
Mus musculus [17] = experiment: Toxicity in Swiss mouse assessed as impairment in exploratory behavior at 10 mg/kg, ig treated 30 mins before training measured up to 4 mins by open-field test; format: organism-based; conditions: in vivo, po
[18] = molecular target: T1, Acetylcholinesterase (Mus musculus); experiment: Inhibition of AChE in Swiss mouse cerebral cortex homogenate using acetylthiocholine as substrate assessed as acetylthiocholine level per mg protein at 1 uM preincubated for 2 mins followed by substrate addition by DTNB based assay relative to acetylthiocholine
Mus musculus [19] = experiment: Toxicity in Swiss mouse assessed as impairment in locomotory activity at 10 mg/kg, ig treated 30 mins before test session measured up to 4 mins by open-field test; format: organism-based; conditions: in vivo, po
Mus musculus [20] = experiment: Toxicity in Swiss mouse assessed as impairment in locomotory activity at 10 mg/kg, ig treated 30 mins before training measured up to 4 mins by open-field test; format: organism-based; conditions: in vivo, po
Mus musculus [21] = experiment: Cognitive enhancement activity in Swiss mouse assessed as increase in step-through latency at 10 mg/kg, ig treated 30 mins before test session measured 24 hrs after training trial by passive avoidance test relative to control; format: functional
Mus musculus [22] = experiment: Cognitive enhancement activity in Swiss mouse assessed as step-through latency at 10 mg/kg, ig treated 30 mins before training measured 24 hrs after training trial by passive avoidance test; format: functional, organism-based
[23] = molecular target: T1, Acetylcholinesterase (Mus musculus); experiment: Inhibition of AChE in Swiss mouse cerebral cortex homogenate using acetylthiocholine as substrate assessed as acetylthiocholine level per mg protein at 200 uM preincubated for 2 mins followed by substrate addition by DTNB based assay relative to acetylthiocholine

| SMILES | Activity [1] [%] | Activity [2] [µmol/h] | Activity [3] [µmol/h] | Activity [4] [%] | Activity [5] [µmol/h] | Activity [6] [%] | Activity [7] [%] | Activity [8] [%] | Activity [9] [%] | Activity [10] [%] | Activity [11] [µmol/h] | Activity [12] [%] | further results |
| --- | --- | --- | --- | --- | --- | --- | --- | --- | --- | --- | --- | --- | --- |
| c1ccc([Se]c2ncnc3[nH]cnc23)cc1 | 93.2 | 7.6 | 7.8 | 99.9 | 7.6 | 98.8 | 99.4 | 86.5 | 90.1 | 95.1 | 7.7 | 99.4 | – |
| Fc1ccc([Se]c2ncnc3[nH]cnc23)cc1 | 99.7 | 6.6 | 6.6 | 99.7 | 6.5 | 101 | 99.4 | 96.9 | 98 | 98.6 | 6.6 | 99.4 | Activity (Mus musculus [13]): 52%; Activity (Mus musculus [14]): Non-Toxic; Activity (Mus musculus [15]): Non-Toxic; Activity (Mus musculus [16]): Non-Toxic; Activity (Mus musculus [17]): Non-Toxic; Imax [18]: 31.2%; Activity (Mus musculus [19]): Non-Toxic; Activity (Mus musculus [20]): Non-Toxic; Activity (Mus musculus [21]): 44%; Activity (Mus musculus [22]): inactive |
| Cc1ccc([Se]c2ncnc3[nH]cnc23)cc1 | 81.7 | 8.9 | 8.7 | 100 | 9.3 | 98 | 99.7 | 61.5 | 93 | 96.3 | 8.9 | 101 | – |
| COc1ccc([Se]c2ncnc3[nH]cnc23)cc1 | 97.1 | 8.8 | 10.4 | 101 | 11.3 | 98.1 | 99.7 | 93.5 | 97.5 | 98.5 | 11 | 99.8 | – |
| Clc1ccc([Se]c2ncnc3[nH]cnc23)cc1 | 86.5 | 7.8 | 7.2 | 99.5 | 7.3 | 98.4 | 98.8 | 72.6 | 68 | 85.9 | 7.8 | 100 | – |
| Cc1ccccc1[Se]c1ncnc2[nH]cnc12 | 97.7 | 6.3 | 7.9 | 99.3 | 7.6 | 96.9 | 100 | 94.8 | 98.7 | 99.3 | 7.1 | 100 | Imax [23]: 34.4% |
| FC(F)(F)c1cccc([Se]c2ncnc3[nH]cnc23)c1 | 97.9 | 8.2 | 7.9 | 99.4 | 8.9 | 98.9 | 99.4 | 97.6 | 99 | 99.4 | 8.2 | 99.7 | – |
